Data taken from US10323001B2, “Compositions for modulating a kinase cascade and methods of use thereof” (Athenex, Inc., priority 2006, dated 2019).
Read-outs that look alike come from different tables or passages of the source. Blank lines part the entries; values can stand above or below the compound they belong to.

How the values were obtained:
[1] = Threshold solubility of salt screen 96 well plate; conditions: DI water
Description: Following each addition, the plate was shaken to encourage mixing for at least 5 minutes prior to evaluation.

[2] = Moisture-sorption analysis (Hiden IGAsorp); type: physicochemical; conditions: 25° C.
Description: Moisture-sorption experiments were performed using a Hiden IGAsorp Moisture Sorption instrument on KX2-391.MSA obtained in accordance with the process of the present invention (Example 4). First, the sample was dried at 0% Relative Humidity (RH) and 25° C. until an equilibrium weight was reached or for a maximum of four hours. The sample was then subjected to an isothermal (25° C.) adsorption scan from 10 to 90% RH in steps of 10%. The sample was allowed to equilibrate to an asymptotic weight at each point for a maximum of four hours. Following adsorption, a desorption scan from 85 to 0% RH (at 25° C.) was run in steps of −10% again allowing a maximum of four hours for equilibration to an asymptotic weight. The sample was then dried for one hour at 80° C. and the resulting solid analyzed by XRPD. […] FIG. 10 depicts percent change of water content as a function of relative humidity for KX2-391.MSA, Form A.
Moisture-sorption experiments were performed using a Hiden IGAsorp Moisture Sorption Instrument on KX2-391.2HCl obtained in accordance with the process of the present invention (Example 3). First, the sample was dried at 0% Relative Humidity (RH) and 25° C. until an equilibrium weight was reached or for a maximum of four hours. The sample was then subjected to an isothermal (25° C.) adsorption scan from 10 to 90% RH in steps of 10%. The sample was allowed to equilibrate to an asymptotic weight at each point for a maximum of four hours. Following adsorption, a desorption scan from 85 to 0% RH (at 25° C.) was run in steps of −10% again allowing a maximum of four hours for equilibration to an asymptotic weight. The sample was then dried for one hour at 80° C. and the resulting solid analyzed by XRPD.

[3] = Solubility in DI water and pH 2.0 phosphate buffer; type: physicochemical; conditions: for solubility: thermodynamic from solid
Description: The table below summarizes additional characterization data for the fumaric and maleate KX2-391.MSA salts and compares it to free base, bis-HCl, and MSA salts described above. The results in the table below were obtained using the procedures described above in Examples 5 (XRPD), 6 (DSC), 7 (TGA), and 8 (moisture-sorption).
Solubility experiments were also performed using pH 2.0 phosphate buffer and DI water pH 6.9 and KX2-391.MSA, Form A. Each vial was filled with approximately 50 mg of KX2-391.MSA, Form A and 100 μL aliquots of the corresponding solvent was added until complete dissolution was observed, followed by stirring at room temperature for one and five days. The solids obtained were isolated by filtration, dried under vacuum at room temperature and analyzed by HPLC. The initial HPLC purity of KX2-391.MSA, Form A was 99.4 (% area). The solubility by HPLC of KX2-391.MSA, Form A in phosphate buffer/RT was >500 mg/mL and HPLC purity was measured to be 99.4. The solubility by HPLC of KX2-391.MSA, Form A in DI H2O/RT was >500 mg/mL and HPLC purity was measured to be 99.4.

[4] = 5 mg/mL DI water dissolution experiment; type: physicochemical; parameters: key to dissolution state: P—Particulates partially dissolved; D—Particulates fully dissolved; conditions: for dissolution in 5 mg/mL DI water experiment: 5 mg in 1 mL DI water
Description: Dissolution experiments were performed on KX2-391 salts to provide a better understanding of the salts interaction in water. This was accomplished using a 5 mg/mL DI water dissolution experiment where 5 mg of each salt was weighed into a vial and 1 mL of DI wather was added. The solution was monitored visually with magnetic stirring over a 20 minute time period to observe the time of dissolution.

[5] = Humidity chamber hygroscopicity study (salt solution chambers, visual inspection); type: physicochemical; conditions: ambient temperature
Description: Further characterization of the hygroscopicity of the mesylate salt was performed using several humidity chambers to cover a range of humidity from 75, 88 to 95% RH. The 75, 88, and 95% RH chambers were prepared with NaCl, BaCl2.2H2O, and Na2HPO4.12 H2O respectively and were equilibrated for 48 hours prior to introducing the samples. Samples were placed into aluminum pans and monitored by visual inspection for up to five days. Table 3 summarizes the observations at 0, 3, 5, 24, 48, 72, 96 and 120 hour time points.
Moisture sorption studies conducted at ambient temperature utilizing salt solution humidity chambers were conducted to evaluate solid stability by visual inspection.

[6] = as above; type: physicochemical; conditions: ambient temperature
[7] = salt screen well: 1 Equivalent of Acid, ACN
[8] = salt screen well: 1 Equivalent of Acid, Acetone
[9] = salt screen well: 1 Equivalent of Acid, Dioxane
[10] = salt screen well: 1 Equivalent of Acid, EtOH
[11] = salt screen well: 1 Equivalent of Acid, IPA
[12] = salt screen well: 1 Equivalent of Acid, THF
[13] = about 5 mg in 1 mL DI water, magnetic stirring, 0 s
[14] = about 5 mg in 1 mL DI water, magnetic stirring, 30 s
[15] = about 5 mg in 1 mL DI water, magnetic stirring, 1 min
[16] = about 5 mg in 1 mL DI water, magnetic stirring, 2 min
[17] = about 5 mg in 1 mL DI water, magnetic stirring, 5 min
[18] = about 5 mg in 1 mL DI water, magnetic stirring, 10 min (1 mL DI water added)
[19] = about 5 mg, after additional 1 mL DI water, 15 min
[20] = about 5 mg, after additional 1 mL DI water, 20 min
[21] = salt screen well: 2 Equivalents of Acid, Acetone
[22] = salt screen well: 2 Equivalents of Acid, Dioxane
[23] = salt screen well: 2 Equivalents of Acid, THF
[24] = % RH 90.0102, end of adsorption
[25] = % RH 90.0102, start of desorption
[26] = % RH −0.0430, end of desorption
[27] = % RH −0.0500, start of adsorption scan

Compound: Cc1ccc(S(=O)(=O)O)cc1.O=C(Cc1ccc(-c2ccc(OCCN3CCOCC3)cc2)cn1)NCc1ccccc1 [p-TSA]
Threshold solubility rank [1, 7]: 5
Threshold solubility rank [1, 8]: 5
Threshold solubility rank [1, 9]: 5
Threshold solubility rank [1, 10]: 5
Threshold solubility rank [1, 11]: 5
Threshold solubility rank [1, 12]: 5

Compound: Maleate
Moisture Sorption Wt % Water @ 90% RH [2]: 1.4 wt %
Solubility mg/mL ([3]; DI H2O): DI H20: 7.3 mg/mL
pH of solubility sample ([3]; DI H2O, * approximate, pH paper instead of meter): (4.5*)
Solubility mg/mL ([3]; pH 2): pH 2: 21.2 mg/mL
pH of solubility sample ([3]; pH 2 medium, * approximate, pH paper instead of meter): (4.5*)
dissolution in 5 mg/mL DI water experiment ([4]; magnetic stirring): not observed to dissolve solids within 10 minutes
dissolution state [4, 13]: P
dissolution state [4, 14]: P
dissolution state [4, 15]: P
dissolution state [4, 16]: P
dissolution state [4, 17]: P
dissolution state [4, 18]: P
dissolution state [4, 19]: P
dissolution state [4, 20]: P
Threshold solubility rank [1, 7]: N
Threshold solubility rank [1, 8]: N
Threshold solubility rank [1, 9]: N
Threshold solubility rank [1, 10]: N
Threshold solubility rank [1, 11]: N
Threshold solubility rank [1, 12]: N
Threshold solubility rank [1, 21]: 1
Threshold solubility rank [1, 22]: 1
Threshold solubility rank [1, 23]: 1

The next lines start with results.

Moisture Sorption Wt % Water @ 90% RH [2]: 0.5 wt %
Solubility mg/mL [3]: DI H20: 7.6 mg/mL
pH of solubility sample [3]: (4.5*)
Solubility mg/mL ([3]; pH 2): pH 2: 21.5 mg/mL
pH of solubility sample ([3]; pH 2): (4.5*)
dissolution state [4, 13]: P
dissolution state [4, 14]: P
dissolution state [4, 15]: P
dissolution state [4, 16]: P
dissolution state [4, 17]: P
dissolution state [4, 18]: P
dissolution state [4, 19]: P
dissolution state [4, 20]: D
Threshold solubility rank [1, 7]: 5
Threshold solubility rank [1, 8]: 5
Threshold solubility rank [1, 9]: 4
Threshold solubility rank [1, 10]: 2
Threshold solubility rank [1, 11]: 2
Threshold solubility rank [1, 12]: 5
Threshold solubility rank ([1]; salt screen well: 2 Equivalents of Acid, ACN): 5
Threshold solubility rank [1, 21]: 5
Threshold solubility rank [1, 22]: 2
Threshold solubility rank ([1]; salt screen well: 2 Equivalents of Acid, IPA): 2
Threshold solubility rank [1, 23]: 5
Compound: O=C(Cc1ccc(-c2ccc(OCCN3CCOCC3)cc2)cn1)NCc1ccccc1.O=C(O)C=CC(=O)O [Fumaric]
dissolution in 5 mg/mL DI water experiment ([4]; magnetic stirring): not observed to dissolve solids within 10 minutes

Threshold solubility rank [1, 9]: 1
Compound: O=C(O)CC(O)C(=O)O (stereo not drawn) [Malic]

inflection point of moisture sorption (suggesting deliquescence) [2]: 40-50 % RH
hygroscopicity by moisture sorption analysis ([2]; adsorption scan 10 to 90% RH): significantly hygroscopic
water absorbed at 60% RH ([2]; 60% RH): 16.7 wt %
Moisture Sorption Wt % Water @ 90% RH [2]: 27.0 wt %
Mole ration (water:sample) ([2]; % RH 4.9957, desorption): 1.3860
Wt % water ([2]; % RH 4.9957, desorption): 4.7176 Wt %
Mole ration (water:sample) ([2]; % RH 10.0011, adsorption): 2.0998
Wt % water ([2]; % RH 10.0011, adsorption): 6.9776 Wt %
Mole ration (water:sample) ([2]; % RH 15.0035, desorption): 2.0512
Wt % water ([2]; % RH 15.0035, desorption): 6.8271 Wt %
Mole ration (water:sample) ([2]; % RH 20.0071, adsorption): 2.4810
Wt % water ([2]; % RH 20.0071, adsorption): 8.1412 Wt %
Mole ration (water:sample) ([2]; % RH 25.0029, desorption): 4.0655
Wt % water ([2]; % RH 25.0029, desorption): 12.6812 Wt %
Mole ration (water:sample) ([2]; % RH 29.9953, adsorption): 2.7855
Wt % water ([2]; % RH 29.9953, adsorption): 9.0498 Wt %
Mole ration (water:sample) ([2]; % RH 35.0089, desorption): 4.3683
Wt % water ([2]; % RH 35.0089, desorption): 13.4981 Wt %
Mole ration (water:sample) ([2]; % RH 39.9936, adsorption): 3.1317
Wt % water ([2]; % RH 39.9936, adsorption): 10.0615 Wt %
Mole ration (water:sample) ([2]; % RH 45.0063, desorption): 4.6309
Wt % water ([2]; % RH 45.0063, desorption): 14.1945 Wt %
Mole ration (water:sample) ([2]; % RH 50.0083, adsorption): 4.7853
Wt % water ([2]; % RH 50.0083, adsorption): 14.5986 Wt %
Mole ration (water:sample) ([2]; % RH 54.9876, desorption): 4.8578
Wt % water ([2]; % RH 54.9876, desorption): 14.7870 Wt %
Mole ration (water:sample) ([2]; % RH 59.9940, adsorption): 5.6228
Wt % water ([2]; % RH 59.9940, adsorption): 16.7261 Wt %
Mole ration (water:sample) ([2]; % RH 64.9989, desorption): 5.0957
Wt % water ([2]; % RH 64.9989, desorption): 15.3997 Wt %
Mole ration (water:sample) ([2]; % RH 70.0044, adsorption): 6.6487
Wt % water ([2]; % RH 70.0044, adsorption): 19.1922 Wt %
Mole ration (water:sample) ([2]; % RH 75.0016, desorption): 5.5767
Wt % water ([2]; % RH 75.0016, desorption): 16.6119 Wt %
Mole ration (water:sample) ([2]; % RH 80.0002, adsorption): 7.4350
Wt % water ([2]; % RH 80.0002, adsorption): 20.9856 Wt %
Mole ration (water:sample) ([2]; % RH 84.9979, desorption): 8.3910
Wt % water ([2]; % RH 84.9979, desorption): 23.0617 Wt %
Mole ration (water:sample) [2, 24]: 10.3345
Wt % water [2, 24]: 26.9630 Wt %
Mole ration (water:sample) [2, 25]: 10.3345
Wt % water [2, 25]: 26.9630 Wt %
Mole ration (water:sample) [2, 26]: 0.3038
Wt % water [2, 26]: 1.0737 Wt %
Mole ration (water:sample) [2, 27]: 1.7493
Wt % water [2, 27]: 5.8814 Wt %
Time to deliquescence ([5]; 42% RH): <3 h
Time to deliquescence ([5]; 51% RH, dihydrochloride): ≤ 12 h
Time to deliquescence ([5]; 51% RH, listed as KX2-391•2HCl, dihydrochloride): <12 h
Results (visual inspection) ([5]; 95% RH): Deliquescence
Time to deliquescence ([5]; 95% RH, dihydrochloride): ≤ 12 h
Time to deliquescence ([5]; 95% RH, listed as KX2-391•2HCl, dihydrochloride): <12 h
deliquescence humidity at ambient temperature [5]: 32-42 % RH
pH of solubility sample [3]: 2.1
pH of solubility sample ([3]; pH 2): (1.9)
solubility ([3]; pH 2, aqueous buffer): > 500 mg/mL
solubility ([3]; pH 6.9, water): > 500 mg/mL
Results (visual inspection) ([6]; 32% RH, 7 days, dihydrochloride): remain stable
Results (visual inspection) ([6]; 32% RH, 7 days, listed as KX2-391•2HCl, dihydrochloride): Solid
Results (visual inspection) ([6]; 42% RH, dihydrochloride): Deliquescence
Results (visual inspection) ([6]; 51% RH): Deliquescence
Compound: Cl.Cl.O=C(Cc1ccc(-c2ccc(OCCN3CCOCC3)cc2)cn1)NCc1ccccc1 [KX2-391.2HCl, 2-(5-(4-(2-morpholinoethoxy)phenyl)pyridine-2-yl)-N-benzylacetamide dihydrochloride]
Results (visual inspection) ([5]; 42% RH, dihydrochloride): deliquescence was observed within three hours
